System: NHBE cells
Assay: Biolog metabolic array: substrate use by NHBE cells with or without CA09 infection
Type: cell-based, human
[1] = Control (uninfected) NHBE cells
[2] = Virus (CA09-infected, MOI 1) NHBE cells
[3] = Virus: CA09-infected NHBE cells, MOI 1, Biolog PMM2

SMILES: Cc1cn([C@H]2C[C@H](O)[C@@H](CO)O2)c(=O)[nH]c1=O [Thymidine]
- 590 nm absorbance normalized to zero hour (substrate use), 1 hr [1]: 1.65
- 590 nm absorbance normalized to zero hour (substrate use), 2 hr [1]: 1.61
- 590 nm absorbance normalized to zero hour (substrate use), 3 hr [1]: 1.67
- 590 nm absorbance normalized to zero hour (substrate use), 4 hr [1]: 1.64
- 590 nm absorbance normalized to zero hour (substrate use), 6 hr [1]: 0.92
- 590 nm absorbance normalized to zero hour (substrate use), 8 hr [1]: 0.62
- 590 nm absorbance normalized to zero hour (substrate use), 9 hr [1]: 1.52
- 590 nm absorbance normalized to zero hour (substrate use), 10 hr [1]: 1.43
- 590 nm absorbance normalized to zero hour (substrate use), 11 hr [1]: 0.81
- Substrate use, 590 nm absorbance normalized to zero hour, 1 hr (Control (uninfected) NHBE cells, Biolog PMM2, 1 hr): 1.65
- Substrate use, 590 nm absorbance normalized to zero hour, 5 hr (Control (uninfected) NHBE cells, Biolog PMM2, 5 hr): 1.75
- Substrate use, 590 nm absorbance normalized to zero hour, 7 hr (Control (uninfected) NHBE cells, Biolog PMM2, 7 hr): 0.61
- 590 nm absorbance normalized to zero hour (substrate use), 1 hr [2]: 1.52
- 590 nm absorbance normalized to zero hour (substrate use), 2 hr [2]: 2.29
- 590 nm absorbance normalized to zero hour (substrate use), 3 hr [2]: 2.27
- 590 nm absorbance normalized to zero hour (substrate use), 4 hr [2]: 2.32
- 590 nm absorbance normalized to zero hour (substrate use), 5 hr [2]: 2.34
- 590 nm absorbance normalized to zero hour (substrate use), 6 hr [2]: 2.33
- 590 nm absorbance normalized to zero hour (substrate use), 7 hr [2]: 2.34
- 590 nm absorbance normalized to zero hour (substrate use), 8 hr [2]: 2.26
- 590 nm absorbance normalized to zero hour (substrate use), 9 hr [2]: 2.28
- 590 nm absorbance normalized to zero hour (substrate use), 10 hr [2]: 0.94
- 590 nm absorbance normalized to zero hour (substrate use), 11 hr [2]: 2.21
- 590 nm absorbance normalized to zero hour (substrate use), 1 hr [3]: 1.52
- 590 nm absorbance normalized to zero hour (substrate use), 2 hr [3]: 2.29
- 590 nm absorbance normalized to zero hour (substrate use), 3 hr [3]: 2.27
- 590 nm absorbance normalized to zero hour (substrate use), 4 hr [3]: 2.32
- 590 nm absorbance normalized to zero hour (substrate use), 5 hr [3]: 2.34
- 590 nm absorbance normalized to zero hour (substrate use), 6 hr [3]: 2.33
- 590 nm absorbance normalized to zero hour (substrate use), 7 hr [3]: 2.34
- 590 nm absorbance normalized to zero hour (substrate use), 8 hr [3]: 2.26
- 590 nm absorbance normalized to zero hour (substrate use), 9 hr [3]: 2.28
- 590 nm absorbance normalized to zero hour (substrate use), 10 hr [3]: 0.94
- 590 nm absorbance normalized to zero hour (substrate use), 11 hr [3]: 2.21
